Test results as given in patent US20020197269A1, “Pharmaceutical composition for immunomodulation and preparation of vaccines” (CISTEM BIOTECHNOLOGIES GMBH, priority 2000, published 2002).
In the oligonucleotide strings, read from the 5' end, every base follows the letter of its sugar. An asterisk marks phosphorothioate; unmarked linkages are phosphodiester. Other units and linkages are bracketed, terminal groups are in braces. A string of capitals states the bases alone. d = 2'-deoxy (DNA)

Test system: MC1R-peptide (WGPFFLHL) specific IFN-γ-producing cells
Test: IFN-γ-ELISPOT after footpad injection with MC1R-peptide (Example 3)
Format: in vivo, Mice C57B1/6
Settings: co-injected with MC1R-peptide 300 μg/mouse into hind footpads; 4 days after injection; CpG-ODN 5 nmol/mouse

## CpG 1668: thiophosphate substituted ODNs containing a CpG motif: TCCATGACGTTCCTGATGCT (DNA dT*dC*dC*dA*dT*dG*dA*dC*dG*dT*dT*dC*dC*dT*dG*dA*dT*dG*dC*dT)
  peptide-specific IFN-γ-producing cells / peptide-specific response (IFN-γ-ELISPOT): low numbers
